Experiments:
rdCMV = assay: Shield-1 dependence of rdCMV replication; type: cell-based, cytomegalovirus; settings: rdCMV in ARPE-19 cells and other human primary cells
Source text: Conversely, rdCMV should not replicate substantially in the absence of Shield-1. The quality of a replication defective mechanism is judged by how stringent the control is under the conditions not permissive for viral replication, i.e., the infectious titers of progeny virions under these conditions. The rdCMV described herein cannot replicate substantially (either in cell culture or within a patient) without Shield-1 present. Its replication in ARPE-19 cells and other types of human primary cells is conditional, and a molar concentration of Shield-1 greater than 0.1 μM, preferable at least 2 μM, in the culture medium is required to sustain viral replication.

FKBP = settings: Clackson et al., 1998; cited from earlier work

SMILES: CC[C@H](C(=O)N1CCCC[C@H]1C(=O)O[C@H](CCc1ccc(OC)c(OC)c1)c1cccc(OCCN2CCOCC2)c1)c1cc(OC)c(OC)c(OC)c1 [Shield-1]
- molar concentration in the culture medium required to sustain viral replication (rdCMV): greater than 0.1 μM
- binding to the F36V derivative compared to wild-type FKBP (tighter) (FKBP): about 1,000 fold

— US20230277654A1, “STABLE FORMULATIONS OF CYTOMEGALOVIRUS” (priority 2017, published 2023)
